In patent US12441768B2, “Compositions and methods for treating endometriosis” (EndoMet Biosciences, Inc., priority 2018, dated 2025):
Where a SMILES comes first, the peptide text is derived from it.

How the values were obtained:
[1] = % Viability non-Wnt responsive cells
[2] = target: Wnt-responsive promoter (TCF/LEF); test: Wnt-dependent luciferase reporter assay; format: cell-based, murine
Method in brief: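 Murine 3T3 fibroblasts carrying a TCF/LEF-driven luciferase reporter, stimulated with Wnt3a in the presence of increasing peptide concentrations or vehicle. Luminescence inhibition gave EC50 values in uM.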

β-catenin = target: T1, β-catenin (Homo sapiens, UniProt P35222); test: KD50 measurement using competitive fluorescence polarization (FP) with labelled TCF4; format: binding; conditions: fluorescence polarization, β-catenin; for Kd: read-out: β-Cat FP KD
T1 sequence (P35222 1-781): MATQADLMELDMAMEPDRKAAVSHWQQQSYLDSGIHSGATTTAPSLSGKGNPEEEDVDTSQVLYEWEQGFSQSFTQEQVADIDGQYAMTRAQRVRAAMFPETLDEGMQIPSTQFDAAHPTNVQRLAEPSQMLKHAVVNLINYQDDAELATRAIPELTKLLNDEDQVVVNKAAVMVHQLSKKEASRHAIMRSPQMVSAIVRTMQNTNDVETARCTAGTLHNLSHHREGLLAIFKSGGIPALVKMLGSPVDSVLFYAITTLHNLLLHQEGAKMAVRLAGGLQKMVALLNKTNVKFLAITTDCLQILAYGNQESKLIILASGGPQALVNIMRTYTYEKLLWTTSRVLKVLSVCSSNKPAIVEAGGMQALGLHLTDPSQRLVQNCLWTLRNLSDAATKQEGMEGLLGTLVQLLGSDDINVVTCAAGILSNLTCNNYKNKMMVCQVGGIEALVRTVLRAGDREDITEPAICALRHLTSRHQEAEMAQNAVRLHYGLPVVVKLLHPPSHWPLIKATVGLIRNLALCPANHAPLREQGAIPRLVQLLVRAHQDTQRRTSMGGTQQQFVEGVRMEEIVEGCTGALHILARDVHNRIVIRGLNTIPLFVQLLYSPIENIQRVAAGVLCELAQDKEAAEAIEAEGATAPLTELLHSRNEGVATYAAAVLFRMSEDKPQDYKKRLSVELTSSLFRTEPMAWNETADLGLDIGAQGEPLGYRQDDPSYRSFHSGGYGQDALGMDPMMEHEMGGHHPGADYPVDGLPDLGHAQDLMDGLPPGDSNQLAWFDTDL
Method in brief: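 Polarization readout (470 nm excitation, 520 nm emission) tracks loss of labelled TCF4 binding to β-catenin as test compound competes. Conditions were 5 nM tracer, 100 nM β-catenin, room temperature, compound serially diluted from 10 nM to 30 uM; run in triplicate experiments.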

Structure (SMILES)	EC50 [2]	β-Cat FP Hill slope (β-catenin)	Kd (β-catenin)	viability [1]
CC[C@H](C)[C@H](NC(=O)[C@H](CC(C)C)NC(=O)[C@H](Cc1ccccc1)NC(=O)[C@H](Cc1c[nH]c2ccccc12)NC(=O)[C@@H](N)CCSC)C(=O)N[C@@H](CS)C(=O)N[C@@H](Cc1c[nH]cn1)C(=O)N[C@@H](Cc1c[nH]c2ccccc12)C(=O)NCC(=O)O [compound 145] (H-MWFLICHWG-OH)	7.5 to 15 µM	0.7	1000 to 10000 nM	107%
CC[C@H](C)[C@H](NC(=O)[C@H](CC(C)C)NC(=O)[C@H](Cc1ccccc1)NC(=O)[C@H](Cc1c[nH]c2ccccc12)NC(=O)[C@@H](N)CCSC)C(=O)N[C@@H](CCCCN)C(=O)N[C@@H](Cc1ccccc1)C(=O)N[C@@H](Cc1ccc(O)cc1)C(=O)NCC(=O)O [compound 151] (H-MWFLIKFYG-OH)	15 to 22.5 µM	0.7	400 to 1000 nM	107%
CC[C@H](C)[C@H](NC(=O)[C@H](CC(C)C)NC(=O)[C@@H](NC(=O)C(C)(Cc1c[nH]c2ccccc12)NC(=O)[C@@H](N)CCSC)[C@@H](C)CC)C(=O)N[C@@H](CS)C(=O)N[C@@H](Cc1ccccc1)C(=O)N[C@@H](Cc1c[nH]c2ccccc12)C(=O)NCC(=O)O (stereo partly drawn) [compound 132] (HELM PEPTIDE1{M.[CC(Cc1c[nH]c2ccccc12)(N[*:1])C(=O)[*:2]].I.L.I.C.F.W.G}$$$$V2.0)	7.5 to 15 µM	0.7	< 400 nM	102%
CC[C@H](C)[C@H](NC(=O)[C@H](CC(C)C)NC(=O)[C@H](Cc1ccc(O)cc1)NC(=O)[C@H](Cc1c[nH]c2ccccc12)NC(=O)[C@H](CCSC)NC(=O)[C@H](CCCNC(=N)N)NC(=O)[C@H](CO)NC(=O)[C@@H](N)CCSC)C(=O)N[C@@H](CO)C(=O)N[C@@H](Cc1ccccc1)C(=O)N[C@@H](Cc1c[nH]c2ccccc12)C(=O)NCC(=O)O [compound 66] (H-MSRMWYLISFWG-OH)	7.5 to 15 µM	0.7	10000 to 30000 nM	98.6%
CC[C@H](C)[C@H](NC(=O)[C@H](CC(C)C)NC(=O)[C@H](Cc1ccccc1)NC(=O)[C@H](Cc1c[nH]c2ccccc12)NC(=O)[C@@H](N)CC(=O)O)C(=O)N[C@@H](CS)C(=O)N[C@@H](Cc1ccccc1)C(=O)N[C@@H](Cc1c[nH]c2ccccc12)C(=O)NCC(=O)O [compound 142] (H-DWFLICFWG-OH)	< 7.5 µM	1.15	< 400 nM	108%
CC[C@H](C)[C@H](NC(=O)[C@H](Cc1c[nH]c2ccccc12)NC(=O)[C@@H](N)CCSC)C(=O)N[C@@H](CC(C)C)C(=O)N[C@H](C(=O)NC(C)(CO)C(=O)N[C@@H](Cc1ccccc1)C(=O)N[C@@H](Cc1c[nH]c2ccccc12)C(=O)NCC(=O)O)[C@@H](C)CC (stereo partly drawn) [compound 136] (HELM PEPTIDE1{M.W.I.L.I.[CC(CO)(N[*:1])C(=O)[*:2]].F.W.G}$$$$V2.0)	> 30 µM	0.9	400 to 1000 nM	106%
CC[C@H](C)[C@H](NC(=O)[C@H](CC(C)C)NC(=O)[C@H](Cc1ccccc1)NC(=O)[C@H](Cc1c[nH]c2ccccc12)NC(=O)[C@H](CCSC)NC(=O)[C@H](CCCNC(=N)N)NC(=O)[C@H](CO)NC(=O)[C@@H](N)CCCNC(=N)N)C(=O)N[C@@H](CO)C(=O)N[C@@H](Cc1ccccc1)C(=O)N[C@@H](Cc1c[nH]c2ccccc12)C(N)=O [compound 84] (H-RSRMWFLISFW-NH2)	> 30 µM		> 30000 nM	88.6%
CC[C@H](C)[C@@H]1NC(=O)[C@H](CC(C)C)NC(=O)[C@H](Cc2ccc(O)cc2)NC(=O)[C@H](Cc2c[nH]c3ccccc23)NC(=O)[C@H](CCSC)NC(=O)[C@H](CCCNC(=N)N)NC(=O)[C@H](CO)NC(=O)[C@@H](N)CCCCNC(=O)[C@H](Cc2c[nH]c3ccccc23)NC(=O)[C@H](Cc2ccccc2)NC(=O)[C@H](CO)NC1=O [compound 32] (HELM PEPTIDE1{K.S.R.M.W.Y.L.I.S.F.W}$PEPTIDE1,PEPTIDE1,1:R3-11:R2$$$V2.0)	> 30 µM		> 30000 nM	93%
CCOC[C@H](NC(=O)[C@H](CO)NC(=O)[C@@H](NC(=O)[C@H](CC(C)C)NC(=O)[C@H](Cc1ccccc1)NC(=O)[C@H](Cc1c[nH]c2ccccc12)NC(=O)[C@H](CCSC)NC(=O)[C@H](CCCNC(=N)N)NC(=O)[C@H](CO)NC(=O)[C@@H](N)CCSC)[C@@H](C)CC)C(=O)N[C@@H](Cc1c[nH]c2ccccc12)C(=O)O [compound 105] (H-MSRMWFLISS(Et)W-OH)	7.5 to 15 µM	0.7	1000 to 10000 nM	96.8%

Further lines, with some results ahead:

EC50 [2]	β-Cat FP Hill slope (β-catenin)	Kd (β-catenin)	Structure (SMILES)	viability [1]
< 7.5 µM	0.67	1000 to 10000 nM	CC[C@H](C)[C@H](NC(=O)[C@H](CC(C)C)NC(=O)[C@H](Cc1ccccc1)NC(=O)[C@H](Cc1c[nH]c2ccccc12)NC(=O)[C@@H](N)CCSC)C(=O)N[C@@H](CS)C(=O)N[C@@H](C)C(=O)N[C@@H](Cc1c[nH]c2ccccc12)C(=O)NCC(=O)O [compound 211] (H-MWFLICAWG-OH)	93.9%
7.5 to 15 µM	0.7	1000 to 10000 nM	CC[C@H](C)[C@@H]1NC(=O)[C@H](CC(C)C)NC(=O)[C@H](Cc2ccccc2)NC(=O)[C@H](Cc2c[nH]c3ccccc23)NC(=O)[C@@H](N)CCCCNC(=O)CNC(=O)CC[C@@H](C(=O)NCC(=O)O)NC(=O)[C@H](Cc2c[nH]c3ccccc23)NC(=O)[C@H](Cc2ccccc2)NC(=O)[C@H](CS)NC1=O [compound 174] (HELM PEPTIDE1{K.W.F.L.I.C.F.W.E.G}|CHEM1{[O=C(CN[*:2])[*:1]]}$PEPTIDE1,CHEM1,1:R3-1:R1|PEPTIDE1,CHEM1,9:R3-1:R2$$$V2.0)	102%
7.5 to 15 µM	0.7	1000 to 10000 nM	CC[C@H](C)[C@@H]1NC(=O)[C@H](CC(C)C)NC(=O)[C@H](Cc2ccccc2)NC(=O)[C@H](Cc2c[nH]c3ccccc23)NC(=O)[C@@H](NC(C)=O)CCCCNC(=O)CC[C@@H](C(=O)O)NC(=O)[C@H](Cc2c[nH]c3ccccc23)NC(=O)[C@H](C)NC(=O)[C@H](CO)NC1=O [compound 187] (HELM PEPTIDE1{[ac].K.W.F.L.I.S.A.W.E}$PEPTIDE1,PEPTIDE1,2:R3-10:R3$$$V2.0)	90.3%
< 7.5 µM	1.01	1000 to 10000 nM	CC[C@H](C)[C@@H]1NC(=O)[C@H](CC(C)C)NC(=O)[C@H](Cc2ccccc2)NC(=O)[C@H](Cc2c[nH]c3ccccc23)NC(=O)[C@@H](N)CCCCNC(=O)CC[C@@H](C(=O)O)NC(=O)[C@H](Cc2c[nH]c3ccccc23)NC(=O)[C@H](Cc2ccccc2)NC(=O)[C@H](CS)NC1=O [compound 179] (HELM PEPTIDE1{K.W.F.L.I.C.F.W.E}$PEPTIDE1,PEPTIDE1,1:R3-9:R3$$$V2.0)	90.9%
< 7.5 µM	0.7	400 to 1000 nM	CC[C@H](C)[C@@H]1NC(=O)[C@H](CC(C)C)NC(=O)[C@H](Cc2ccccc2)NC(=O)[C@H](Cc2c[nH]c3ccccc23)NC(=O)[C@@H](N)CCCCNC(=O)CNC(=O)C[C@@H](C(=O)O)NC(=O)[C@H](Cc2c[nH]c3ccccc23)NC(=O)[C@H](C)NC(=O)[C@H](CS)NC1=O [compound 207] (HELM PEPTIDE1{K.W.F.L.I.C.A.W.[O=C(O)[C@H](CC(=O)[*:2])N[*:1]].G}$PEPTIDE1,PEPTIDE1,1:R3-10:R2$$$V2.0)	107%
